# Reference: patent US12459914B2, “Compounds and compositions for the treatment of tumors” (FONDAZIONE ISTITUTO ITALIANO DI TECNOLOGIA, priority 2019, dated 2025)
# Molecular target: T1, BRC4/RAD51 interaction (Homo sapiens, UniProt Q06609)
# T1 construct: purchased Creative Biomart (Rad51); Life Technologies (BRC4 peptide)
# T1 sequence (Q06609 1-339): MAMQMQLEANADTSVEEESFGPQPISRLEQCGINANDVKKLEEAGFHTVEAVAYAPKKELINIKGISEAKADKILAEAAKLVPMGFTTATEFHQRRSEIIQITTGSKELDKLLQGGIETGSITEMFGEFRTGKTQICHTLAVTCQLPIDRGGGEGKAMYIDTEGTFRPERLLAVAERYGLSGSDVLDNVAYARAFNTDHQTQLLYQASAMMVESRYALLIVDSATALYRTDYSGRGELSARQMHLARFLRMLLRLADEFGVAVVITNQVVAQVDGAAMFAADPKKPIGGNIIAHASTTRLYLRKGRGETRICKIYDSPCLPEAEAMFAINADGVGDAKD
# Test: Competitive ELISA assay, disruption of BRC4/RAD51 interaction
# Assay type: binding
# Conditions: human Rad51, biotinylated BRC4 peptide
# Description: A competitive ELISA screening assay using biotinylated BRC4 peptide to disrupt the BRC4/RAD51 interaction was performed by modifying the method described by Rajendra et al. (Nucleic Acids Res. 38 (2010) 82-96). BRC4-biotinylated peptide (N-term Biotin[…] from Life Technologies) was used to coat 384-well plates (Nunc). After washing with PBS containing 0.05% Tween-20 (PBST), and blocking with the solution BSA 1%/PBST, overnight hybridization with human Rad51 protein (NP_002866 Creative Biomart, NY) was performed. Test compounds were added in dose-response from […] in triplicate with constant DMSO 1%. Antibody raised against Rad51 (Millipore) and HRP-secondary antibody staining to develop the 3,30,5,50-tetramethyllbenzidine signal (Sigma) quenched with 1M HCl was used as the assay readout. Colorimetric measure was read on Victor5 (PerkinElmer) plate Reader. BRC4 and Rad51 were included in the assay as positive control. Results were analyzed using GraphPad Software.
row,Structure (SMILES),EC50 [µM]
1,"O=C(O)CCC(=O)N1N=C(c2c(-c3ccccc3)c3cc(Cl)ccc3[nH]c2=O)CC1c1ccc(F)cc1 (centres unmarked) [d.1, 4-[5-(6-chloro-2-oxo-4-phenyl-1H-quinolin-3-yl)-3-(4-fluorophenyl)-3,4-dihydropyrazol-2-yl]-4-oxo-butanoic acid]",38
2,"CCC(=O)N1N=C(c2c(-c3ccccc3)c3cc(Cl)ccc3[nH]c2=O)CC1c1ccc(F)cc1 (centres unmarked) [d.3, 6-chloro-3-[3-(4-fluorophenyl)-2-propanoyl-3,4-dihydropyrazol-5-yl]-4-phenyl-1H-quinolin-2-one]",34
3,"NCCC(=O)N1N=C(c2c(-c3ccccc3)c3cc(Cl)ccc3[nH]c2=O)CC1c1ccc(F)cc1 (centres unmarked) [d.4, 3-[2-(3-aminopropanoyl)-3-(4-fluorophenyl)-3,4-dihydropyrazol-5-yl]-6-chloro-4-phenyl-1H-quinolin-2-one]",> 100
4,"CCC(=O)N1N=C(c2c(-c3ccccc3)c3cc(Cl)ccc3[nH]c2=O)CC1c1ccc(Br)cc1 (centres unmarked) [d.10, 3-[3-(4-bromophenyl)-2-propanoyl-3,4-dihydropyrazol-5-yl]-6-chloro-4-phenyl-1H-quinolin-2-one]",19
5,"COc1ccc(-c2ccc(C3CC(c4c(-c5ccccc5)c5cc(Cl)ccc5[nH]c4=O)=NN3C(C)=O)cc2)cc1 (centres unmarked) [d.42, 3-[2-acetyl-3-[4-(4-methoxyphenyl)phenyl]-3,4-dihydropyrazol-5-yl]-6-chloro-4-phenyl-1H-quinolin-2-one]",70
6,"CCCn1cc(-c2ccc(C3CC(c4c(-c5ccccc5)c5cc(Cl)ccc5[nH]c4=O)=NN3C(C)=O)cc2)cn1 (centres unmarked) [d.44, 3-[2-acetyl-3-[4-(1-propylpyrazol-4-yl)phenyl]-3,4-dihydropyrazol-5-yl]-6-chloro-4-phenyl-1H-quinolin-2-one]",46
7,"CCn1ncc2cc(-c3ccc(C4CC(c5c(-c6ccccc6)c6cc(Cl)ccc6[nH]c5=O)=NN4C(=O)CCC(=O)O)cc3)ccc21 (centres unmarked) [d.45, 4-[5-(6-chloro-2-oxo-4-phenyl-1H-quinolin-3-yl)-3-[4-(1-ethylindazol-5-yl)phenyl]-3,4-dihydropyrazol-2-yl]-4-oxo-butanoic acid]",15
8,"CCC(=O)N1N=C(c2c(Cc3ccccc3)c3cc(Cl)ccc3[nH]c2=O)CC1c1ccc(F)cc1 (centres unmarked) [d.54, 4-benzyl-6-chloro-3-[3-(4-fluorophenyl)-2-propanoyl-3,4-dihydropyrazol-5-yl]-1H-quinolin-2-one]",65

# Continued, values first:
row,EC50 [µM],Structure (SMILES)
1,> 100,"COc1ccc(C2CC(c3c(Cc4ccccc4)c4cc(Cl)ccc4[nH]c3=O)=NN2C(=O)CCC(=O)O)cc1 (centres unmarked) [d.61, 4-[5-(4-benzyl-6-chloro-2-oxo-1H-quinolin-3-yl)-3-(4-methoxyphenyl)-3,4-dihydropyrazol-2-yl]-4-oxo-butanoic acid]"
2,10,"Cn1ccc2cc(C3CC(c4c(Cc5ccccc5)c5cc(Cl)ccc5[nH]c4=O)=NN3C(=O)CCC(=O)O)ccc21 (centres unmarked) [d.69, 4-[5-(4-benzyl-6-chloro-2-oxo-1H-quinolin-3-yl)-3-(1-methylindol-5-yl)-3,4-dihydropyrazol-2-yl]-4-oxo-butanoic acid]"
3,12,"O=C(O)CCC(=O)N1N=C(c2c(Cc3ccccc3)c3cc(Cl)ccc3[nH]c2=O)CC1c1ccc(-c2ccc(F)cc2)cc1 (centres unmarked) [d.83, 4-[5-(4-benzyl-6-chloro-2-oxo-1H-quinolin-3-yl)-3-[4-(4-fluorophenyl)phenyl]-3,4-dihydropyrazol-2-yl]-4-oxo-butanoic acid]"
4,105,"COc1ccc(-c2ccc(C3CC(c4c(Cc5ccccc5)c5cc(Cl)ccc5[nH]c4=O)=NN3C(C)=O)cc2)cc1 (centres unmarked) [d.89, 3-[2-acetyl-3-[4-(4-methoxyphenyl)phenyl]-3,4-dihydropyrazol-5-yl]-4-benzyl-6-chloro-1H-quinolin-2-one]"
5,190,"O=C(O)CCC(=O)N1N=C(c2c(-c3ccccc3)c3cc(Cl)ccc3[nH]c2=O)CC1c1ccccn1 (centres unmarked) [d.99, 4-(3-(6-chloro-2-oxo-4-phenyl-1,2-dihydroquinolin-3-yl)-5-(pyridin-2-yl)-4,5-dihydro-1H-pyrazol-1-yl)-4-oxobutanoic acid]"
6,15,"O=C(O)CCC(=O)N1N=C(c2c(Cc3ccccc3)c3cc(Cl)ccc3[nH]c2=O)CC1c1cccnc1 (centres unmarked) [d.100, 4-[5-(4-benzyl-6-chloro-2-oxo-1H-quinolin-3-yl)-3-(3-pyridyl)-3,4-dihydropyrazol-2-yl]-4-oxo-butanoic acid]"

# System: BxPC-3 cells
# Test: Cell viability assay (CellTiter Glo)
# Assay type: cell-based
# Conditions: Homo sapiens, 72 h
# Description: BxPC-3 cells were grown in RPMI 1640 containing 10% FBS, 100 U/ml penicillin/streptomycin, 2 mM glutamine. All media and supplements were from Sigma-Aldrich. Cultures were routinely tested for Mycoplasma contamination. Treatments (Olaparib and BRCA2-Rad51 disruptors) were administered in culture medium supplemented with 0.6% DMSO. The same amount of DMSO was added to the control, untreated cultures.
# Cell viability was assessed by CellTiter Glo, Luminescent Cell Viability Assay. Briefly, BxPC-3 cells (1×10^4/well) were plated in white 96-well plates with clear bottom and treated for 72 h with olaparib (10 μM) or with the BRCA2-Rad51 disruptors, given alone or in combination. After treatments, the plate was allowed to equilibrate at room temperature for 30 min and the CellTiter-Glo reactive was directly added to each well. The plate was kept on a shaker for 2 min to induce cell lysis and its luminescence was measured by using a Fluoroskan Ascent FL reader (Labsystems) using manufacturer's instructions.
row,Structure (SMILES),EC50 [µM]
1,"O=C(O)CCC(=O)N1N=C(c2c(-c3ccccc3)c3cc(Cl)ccc3[nH]c2=O)CC1c1ccc(F)cc1 (centres unmarked) [d.1, 4-[5-(6-chloro-2-oxo-4-phenyl-1H-quinolin-3-yl)-3-(4-fluorophenyl)-3,4-dihydropyrazol-2-yl]-4-oxo-butanoic acid]",> 50
2,"CC(=O)N1N=C(c2c(-c3ccccc3)c3cc(Cl)ccc3[nH]c2=O)CC1c1ccc(F)cc1 (centres unmarked) [d.2, 3-[2-acetyl-3-(4-fluorophenyl)-3,4-dihydropyrazol-5-yl]-6-chloro-4-phenyl-1H-quinolin-2-one]",37
3,"NCCC(=O)N1N=C(c2c(-c3ccccc3)c3cc(Cl)ccc3[nH]c2=O)CC1c1ccc(F)cc1 (centres unmarked) [d.4, 3-[2-(3-aminopropanoyl)-3-(4-fluorophenyl)-3,4-dihydropyrazol-5-yl]-6-chloro-4-phenyl-1H-quinolin-2-one]",7.6
4,"O=C(O)CCC(=O)N1N=C(c2c(-c3ccccc3)c3cc(Cl)ccc3[nH]c2=O)CC1c1ccc(Cl)cc1 (centres unmarked) [d.5, 4-[5-(6-chloro-2-oxo-4-phenyl-1H-quinolin-3-yl)-3-(4-chlorophenyl)-3,4-dihydropyrazol-2-yl]-4-oxo-butanoic acid]",> 50
5,"CC(=O)N1N=C(c2c(-c3ccccc3)c3cc(Cl)ccc3[nH]c2=O)CC1c1ccc(Cl)cc1 (centres unmarked) [d.6, 3-[2-acetyl-3-(4-chlorophenyl)-3,4-dihydropyrazol-5-yl]-6-chloro-4-phenyl-1H-quinolin-2-one]",20
6,"CCC(=O)N1N=C(c2c(-c3ccccc3)c3cc(Cl)ccc3[nH]c2=O)CC1c1ccc(Cl)cc1 (centres unmarked) [d.7, 6-chloro-3-[3-(4-chlorophenyl)-2-propanoyl-3,4-dihydropyrazol-5-yl]-4-phenyl-1H-quinolin-2-one]",20
7,"CCn1ncc2cc(C3CC(c4c(-c5ccccc5)c5cc(Cl)ccc5[nH]c4=O)=NN3C(C)=O)ccc21 (centres unmarked) [d.32, 3-[2-acetyl-3-(1-ethylindazol-5-yl)-3,4-dihydropyrazol-5-yl]-6-chloro-4-phenyl-1H-quinolin-2-one]",27
8,"O=C(O)CCC(=O)N1N=C(c2c(-c3ccccc3)c3cc(Cl)ccc3[nH]c2=O)CC1c1ccc(-c2ccc(Br)cc2)cc1 (centres unmarked) [d.39, 4-[3-[4-(4-bromophenyl)phenyl]-5-(6-chloro-2-oxo-4-phenyl-1H-quinolin-3-yl)-3,4-dihydropyrazol-2-yl]-4-oxo-butanoic acid]",43
9,"COc1ccc(-c2ccc(C3CC(c4c(-c5ccccc5)c5cc(Cl)ccc5[nH]c4=O)=NN3C(=O)CCC(=O)O)cc2)cc1 (centres unmarked) [d.41, 4-[5-(6-chloro-2-oxo-4-phenyl-1H-quinolin-3-yl)-3-[4-(4-methoxyphenyl)phenyl]-3,4-dihydropyrazol-2-yl]-4-oxo-butanoic acid]",40.6
10,"CC(=O)N1N=C(c2c(-c3ccccc3)c3cc(Cl)ccc3[nH]c2=O)CC1c1ccc(C)cc1 (centres unmarked) [d.49, 3-[2-acetyl-3-(p-tolyl)-3,4-dihydropyrazol-5-yl]-6-chloro-4-phenyl-1H-quinolin-2-one]",15.2
11,"O=C(O)CCC(=O)N1N=C(c2c(Cc3ccccc3)c3cc(Cl)ccc3[nH]c2=O)CC1c1ccc(F)cc1 (centres unmarked) [d.50, 4-[5-(4-benzyl-6-chloro-2-oxo-1H-quinolin-3-yl)-3-(4-fluorophenyl)-3,4-dihydropyrazol-2-yl]-4-oxo-butanoic acid]",15.2
12,"COc1ccc(C2CC(c3c(Cc4ccccc4)c4cc(Cl)ccc4[nH]c3=O)=NN2C(C)=O)cc1 (centres unmarked) [d.52, 3-[2-acetyl-3-(4-methoxyphenyl)-3,4-dihydropyrazol-5-yl]-4-benzyl-6-chloro-1H-quinolin-2-one]",13.7

# More lines, now with the values ahead:
row,EC50 [µM],Structure (SMILES)
1,23.6,"O=C(O)CCC(=O)N1N=C(c2c(Cc3ccccc3)c3cc(Cl)ccc3[nH]c2=O)CC1c1ccc(Br)cc1 (centres unmarked) [d.58, 4-[5-(4-benzyl-6-chloro-2-oxo-1H-quinolin-3-yl)-3-(4-bromophenyl)-3,4-dihydropyrazol-2-yl]-4-oxo-butanoic acid]"
2,81.8,"Cn1ncc2cc(C3CC(c4c(Cc5ccccc5)c5cc(Cl)ccc5[nH]c4=O)=NN3C(=O)CCC(=O)O)ccc21 (centres unmarked) [d.73, 4-[5-(4-benzyl-6-chloro-2-oxo-1H-quinolin-3-yl)-3-(1-methylindazol-5-yl)-3,4-dihydropyrazol-2-yl]-4-oxo-butanoic acid]"
3,29.6,"COc1ccc(C2CC(c3c(CCc4ccccc4)c4cc(Cl)ccc4[nH]c3=O)=NN2C(=O)CCC(=O)O)cc1 (centres unmarked) [d.105, 4-[5-[6-chloro-2-oxo-4-(2-phenylethyl)-1H-quinolin-3-yl]-3-(4-methoxyphenyl)-3,4-dihydropyrazol-2-yl]-4-oxo-butanoic acid]"
